Data published in patent US20060128634A1, “Alpha, alpha-disubstituted benzylglycine derivatives as HIV protease inhibitors” (priority 2002, published 2006).
≈ marks a conversion by molar mass, not a printed value.

Tested on: HIV-1 (RF)
Experiment: HIV RNA assay: microplate based compound evaluation in HIV-1 infected MT-2 cells
Type: cell-based
Details: Human immunodeficiency virus 1, MT2; HIV-1 (RF) infected MT-2 cells; value used to standardize the virus inoculum; read-out: IC90 (concentration of compound required to reduce the HIV RNA level by 90%)
Protocol: Plasmid pDAB 72 containing both gag and pol sequences of BH10 (bp 113-1816) cloned into PTZ 19R was prepared according to Erickson-Vitanen et al. AIDS Research and Human Retroviruses 1989, 5, 577. The plasmid was linearized with Bam HI prior to the generation of in vitro RNA transcripts using the Riboprobe Gemini system II kit (Promega) with T7 RNA polymerase. Synthesized RNA was purified by treatment with RNase free DNAse (Promega), phenol-chloroform extraction, and ethanol precipitation. RNA transcripts were dissolved in water, and stored at −70EC. The concentration of RNA was determined from the A260.
Biotinylated capture probes were purified by HPLC after synthesis on an Applied Biosystems (Foster city, Calif.) DNA synthesizer by addition of biotin to the 5N terminal end of the oligonucleotide, using the biotin-phosphoramidite reagent of Cocuzza, Tet. Lett. 1989, 30, 6287. […]
MT-2 and MT-4 cells were maintained in RPMI 1640 supplemented with 5% fetal calf serum (FCS) for MT-2 cells or 10% FCS for MT-4 cells, 2 mM L-glutamine and 50 μg/mL gentamycin, all from Gibco. […] Infectious titers of HIV-1(RF) stocks were 1-3×10^7 PFU (plaque forming units)/mL as measured by plaque assay on MT-2 cells (see below). […]

`Nc1ccn([C@H]2CC[C@@H](CO)O2)c(=O)n1` [ddC, dideoxycytidine] was tested, and the IC90 was 0.2 µg/mL (≈ 0.947 µM).
